According to US10945932B2, “Prebiotic oral care compositions containing carboxylic acids” (COLGATE-PALMOLIVE COMPANY, priority 2013, dated 2021):

Experiments:
Type in all cases: cell-based
[1] = tested on: beneficial oral bacteria and pathogenic oral bacteria; experiment: Metabolic activity, prebiotic effect over the whole panel; details: 48 hrs; threshold value of 2
Protocol: (§1) The extent of metabolic activity of the tested bacteria in the presence of the above-mentioned acids after 24 hours and 48 hours was investigated through a high throughput phenotype microarray system (PM) for microbial cells (Biolog Inc.). Each PM can contain up to 95 different biochemical compounds (e.g. organic acids) that may act as substrates for bacteria as well as one negative control, not containing the substrates. Microarray plates were used in which the different wells of each plate were pre-loaded (by the manufacturer, Biolog Inc.) with different organic acids to be tested. Each bacterial species was tested using a separate microarray plate. Thus, a single bacterial species was tested with a variety of organic acids on each particular plate. The microarrays are based on redox technology, using cell respiration as a universal reporter. […] The observation of this color change indicates which of the substrates improve the metabolic activity and health of the cells.
(§2) Each bacterial species was collected from blood agar plates (incubated for 48 hours anaerobically at 37° C.) and transferred to an IF-0 Base inoculation fluid (Biolog Inc.), which is a nutritionally poor medium. […] A 1:5 dilution of this suspension was prepared by mixing 3 mL of the 42% transmittance cell suspension with 15 mL of an inoculation fluid (which inoculation fluid was formed by mixing 11.6 mL sterile water, 62.5 mL IF-0 base inoculation fluid and 0.9 mL of the tetrazolium dye “Biolog Redox Dye mix D”), resulting in a final cell density which was equal to 85% transmittance using a BioRad SmartSpec 3000 Photometer. For each of the acids tested, the microarray plate (obtained from the supplier (Biolog Inc.) with acid already present in the relevant wells in powder form) was directly inoculated with 100 μL/well of this 85% transmittance cell suspension.
(§3) All plates were incubated in an anaerobic atmosphere at 37° C. Color changes were measured spectrophotometrically at 492 nm (Thermo Scientific Multiskan Ascent) at 24 hrs and 48 hrs using the same plate at both time points.
(§4) The controls were also carried out three times, as above.

Actinomyces naeslundii = experiment: Metabolic activity, Biolog phenotype microarray; details: A naeslundii
Protocol: as §1, §2, §3, §4

Actinomyces viscosus = experiment: Metabolic activity, Biolog phenotype microarray; details: A viscosus
Protocol: as §1, §2, §3, §4

[2] = tested on: Aggregatibacter actinomycetemcomitans; experiment: Metabolic activity, Biolog phenotype microarray; details: A actinomycetemcomitans
Protocol: as §1, §2, §3, §4

Capnocytophaga sputigena = experiment: Metabolic activity, Biolog phenotype microarray; details: C sputigena
Protocol: as §1, §2, §3, §4

Fusobacterium nucleatum = experiment: Metabolic activity, Biolog phenotype microarray; details: F nucleatum
Protocol: as §1, §2, §3, §4

Porphyromonas gingivalis = experiment: Metabolic activity, Biolog phenotype microarray; details: P gingivalis
Protocol: as §1, §2, §3, §4

Prevotella intermedia = experiment: Metabolic activity, Biolog phenotype microarray; details: P intermedia
Protocol: as §1, §2, §3, §4

Streptococcus gordonii = experiment: Metabolic activity, Biolog phenotype microarray; details: S gordonii
Protocol: as §1, §2, §3, §4

Streptococcus mitis = experiment: Metabolic activity, Biolog phenotype microarray; details: S mitis
Protocol: as §1, §2, §3, §4

Streptococcus mutans = experiment: Metabolic activity, Biolog phenotype microarray; details: S mutans
Protocol: as §1, §2, §3, §4

Streptococcus salivarius = experiment: Metabolic activity, Biolog phenotype microarray; details: S salivarius
Protocol: as §1, §2, §3, §4

Streptococcus sanguinis = experiment: Metabolic activity, Biolog phenotype microarray; details: S sanguinis
Protocol: as §1, §2, §3, §4

Streptococcus sobrinus = experiment: Metabolic activity, Biolog phenotype microarray; details: S sobrinus
Protocol: as §1, §2, §3, §4

Tannerella forsythia = experiment: Metabolic activity, Biolog phenotype microarray; details: T forsythia
Protocol: as §1, §2, §3, §4

Veillonella parvula = experiment: Metabolic activity, Biolog phenotype microarray; details: V parvula
Protocol: as §1, §2, §3, §4

Compound: CC(=O)O [Acetic acid, acetic acid]
- prebiotic effect (metabolic activity) [1]: exhibited prebiotic effects

Compound: O=C(O)CC(O)(CC(=O)O)C(=O)O [Citric acid, citric acid]
- metabolic activity, OD at 492 nm divided by OD of control (control = 1) (Actinomyces naeslundii; 24 hrs): 0.8551
- metabolic activity, OD at 492 nm divided by OD of control (control = 1) (Actinomyces naeslundii; 48 hrs): 0.7965
- metabolic activity, OD at 492 nm divided by OD of control (control = 1) (Actinomyces viscosus; 24 hrs): 0.9333
- metabolic activity, OD at 492 nm divided by OD of control (control = 1) (Actinomyces viscosus; 48 hrs): 0.9052
- metabolic activity, OD at 492 nm divided by OD of control (control = 1) ([2]; 24 hrs): 1.3098
- metabolic activity, OD at 492 nm divided by OD of control (control = 1) ([2]; 48 hrs): 1.4736
- metabolic activity, OD at 492 nm divided by OD of control (control = 1) (Capnocytophaga sputigena; 24 hrs): 0.5992
- metabolic activity, OD at 492 nm divided by OD of control (control = 1) (Capnocytophaga sputigena; 48 hrs): 0.8818
- metabolic activity, OD at 492 nm divided by OD of control (control = 1) (Fusobacterium nucleatum; 24 hrs): 0.7626
- metabolic activity, OD at 492 nm divided by OD of control (control = 1) (Fusobacterium nucleatum; 48 hrs): 0.6603
- metabolic activity, OD at 492 nm divided by OD of control (control = 1) (Porphyromonas gingivalis; 24 hrs): 0.8443
- metabolic activity, OD at 492 nm divided by OD of control (control = 1) (Porphyromonas gingivalis; 48 hrs): 0.8692
- metabolic activity, OD at 492 nm divided by OD of control (control = 1) (Prevotella intermedia; 24 hrs): 0.9626
- metabolic activity, OD at 492 nm divided by OD of control (control = 1) (Prevotella intermedia; 48 hrs): 0.8872
- metabolic activity, OD at 492 nm divided by OD of control (control = 1) (Streptococcus gordonii; 24 hrs): 0.9010
- metabolic activity, OD at 492 nm divided by OD of control (control = 1) (Streptococcus gordonii; 48 hrs): 0.7481
- metabolic activity, OD at 492 nm divided by OD of control (control = 1) (Streptococcus mitis; 24 hrs): 1.0814
- metabolic activity, OD at 492 nm divided by OD of control (control = 1) (Streptococcus mitis; 48 hrs): 0.8953
- metabolic activity, OD at 492 nm divided by OD of control (control = 1) (Streptococcus mutans; 24 hrs): 1.1156
- metabolic activity, OD at 492 nm divided by OD of control (control = 1) (Streptococcus mutans; 48 hrs): 1.0700
- metabolic activity, OD at 492 nm divided by OD of control (control = 1) (Streptococcus salivarius; 24 hrs): 0.9935
- metabolic activity, OD at 492 nm divided by OD of control (control = 1) (Streptococcus salivarius; 48 hrs): 0.9148
- metabolic activity, OD at 492 nm divided by OD of control (control = 1) (Streptococcus sanguinis; 24 hrs): 0.8938
- metabolic activity, OD at 492 nm divided by OD of control (control = 1) (Streptococcus sanguinis; 48 hrs): 0.8704
- metabolic activity, OD at 492 nm divided by OD of control (control = 1) (Streptococcus sobrinus; 24 hrs): 0.9828
- metabolic activity, OD at 492 nm divided by OD of control (control = 1) (Streptococcus sobrinus; 48 hrs): 0.8769
- metabolic activity, OD at 492 nm divided by OD of control (control = 1) (Tannerella forsythia; 24 hrs): 0.9320
- metabolic activity, OD at 492 nm divided by OD of control (control = 1) (Tannerella forsythia; 48 hrs): 0.8510
- metabolic activity, OD at 492 nm divided by OD of control (control = 1) (Veillonella parvula; 24 hrs): 1.2832
- metabolic activity, OD at 492 nm divided by OD of control (control = 1) (Veillonella parvula; 48 hrs): 2.0488
- prebiotic effect (metabolic activity) [1]: exhibited prebiotic effects
